ChEMBL document CHEMBL1141386, “Metabolites from the Lichen Ochrolechia parella growing under two different heliotropic conditions” (J Nat Prod, 2007)

The molecules below were run on B16 (assay: Cytotoxicity against murine B16 cells by MTT assay). Details: Mus musculus.
Assay type: cell-based

SMILES	IC50
CCCCCC(=O)Cc1cc(O)cc2c1C(=O)Oc1cc(O)c(C(=O)O)c(CC(=O)CCCCC)c1O2	10.3 µM
COc1cccc2c1C(=O)c1c(O)c3c(c(O)c1C2=O)C[C@@](O)(C(=O)CO)C[C@@H]3O[C@H]1C[C@H](N)[C@H](O)[C@H](C)O1 [DOXORUBICIN]	0.1 µM
CC(C)[C@@H](C)/C=C/[C@@H](C)[C@H]1CC[C@@H]2[C@]1(C)CC[C@H]1[C@]23C=C[C@]2(C[C@@H](O)CC[C@]12C)OO3 [ERGOSTEROL PEROXIDE]	77.9 µM
Cc1cc(O)cc2c1C(=O)Oc1cc3c(c(O)c1O2)C(=O)OC3 [VARIOLARIC ACID]	38.7 µM
